Values quoted from earlier work as cited in US20210127703A1, “FOOD PRODUCT USING AN IMPROVED SUGAR” (priority 2019, published 2021).

How the values were obtained:
[1] = system: liver microsomal drug-metabolizing enzymes; conditions: in vitro; inhibiting hexobarbital metabolism in humans
[2] = in vivo
[3] = transdermal; higher than for Δ8-THC
[4] = ingestion of 20 mg of THC in a chocolate cookie
[5] = after application of a dermal patch

## C=C(C)[C@@H]1CCC(C)=C[C@H]1c1c(O)cc(CCCCC)cc1O [CBD, cannabidiol]
[1]
  inhibition of liver microsomal drug-metabolizing enzymes: in vitro inhibitor of liver microsomal drug-metabolizing enzymes
[2]
  excretion in the feces: a large proportion of the dose is excreted unchanged in the feces
CYP 2C; Hunt et al., except for a slight slowing of metabolism of 11-OH-THC to THC-COOH
  effect of CBD on pharmacokinetics of THC: not affected
CYP 2C; oral THC alone compared to a THC and CBD preparation
  inhibition of hydroxylation of THC to 11-OH-THC catalyzed by CYP 2C: only partially inhibited
[3]
  permeability relative to Δ8-THC: 10 fold

## CCCCCc1cc(O)c2c(c1)OC(C)(C)c1ccc(C)cc1-2 [CBN]
[3]
  permeability relative to Δ8-THC: 10 fold

## CCCCCc1cc(O)c2c(c1)OC(C)(C)[C@@H]1CCC(C)=C[C@@H]21 [THC]
[4]
  time of peak THC concentration following ingestion: 1 to 5 h

## CCCCCc1cc(O)c2c(c1)OC(C)(C)[C@@H]1CC=C(C)C[C@@H]21 [Δ8-THC]
[5]
  duration steady-state plasma concentration maintained: at least 48 h
  mean steady-state plasma concentration: 4.4 ng/mL
  time to steady-state plasma concentration: ≤ 1.4 h
